Measurements as given in patent publication US20250145633A1, “SUBSTITUTED FURANOPYRIMIDINE COMPOUNDS AS PDE1 INHIBITORS” (Dart NeuroScience, LLC, priority 2017, published 2025).

Target: human PDE1B enzyme (Homo sapiens (Human), UniProt Q01064)
Assay: IMAP TR-FRET PDE1B enzymatic assay
Assay type: biochemical
Conditions: negative log of half-maximal molar inhibitory concentration, 200 nM FAM-cAMP, values given as bins; for IC50: read-out: PDE1b (pIC50) (converted)
Method in brief: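 Full-length GST-tagged human PDE1B (250 pg/well) in IMAP BSA buffer with 10 U/ml calmodulin and 2.5 mM CaCl2; compound pre-incubated 5 min at room temperature, then 200 nM (final) FAM-cAMP for 30 min. IMAP binding reagent/Tb added, 1 h; TR-FRET 520/490 ratio read. IC50 from sigmoidal dose-response fit.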

How did the “PDE1b (pIC50)” value turn out when Cc1oc2ncnc(NC3(C)CC3)c2c1C(=O)N1CCc2c(ncnc2OCC2CC2)C1 [Example 808, 5-[4-(Cyclopropylmethoxy)-5H,6H,7H,8H-pyrido[3,4-d]pyrimidine-7-carbonyl]-6-methyl-N-(1-methylcyclopropyl)furo[2,3-d]pyrimidin-4-amine] was run?
The value was >8.

Which IC50 does the source give for COCCOc1ncnc2c1CCN(C(=O)c1c(C)oc3ncnc(NC4(C)CC4)c13)C2 [Example 809, 5-[4-(2-Methoxyethoxy)-5H,6H,7H,8H-pyrido[3,4-d]pyrimidine-7-carbonyl]-6-methyl-N-(1-methylcyclopropyl)furo[2,3-d]pyrimidin-4-amine] here?
The IC50 was 10 to 100 nM.

How did the “PDE1b (pIC50)” value turn out when Cc1oc2ncnc(NC3(C)CC3)c2c1C(=O)N1CCc2c(ncnc2OC2CCC2)C1 [Example 810, 5-{4-Cyclobutoxy-5H,6H,7H,8H-pyrido[3,4-d]pyrimidine-7-carbonyl}-6-methyl-N-(1-methylcyclopropyl)furo[2,3-d]pyrimidin-4-amine] was run?
Its value is >8.

Which IC50 does the source give for Cc1oc2ncnc(NC3(C)CC3)c2c1C(=O)N1CCc2c(ncnc2OC2CC2)C1 [Example 811, 5-{4-Cyclopropoxy-5H,6H,7H,8H-pyrido[3,4-d]pyrimidine-7-carbonyl}-6-methyl-N-(1-methylcyclopropyl)furo[2,3-d]pyrimidin-4-amine] here?
The IC50 was 10 to 100 nM.

How did the “PDE1b (pIC50)” value turn out when COc1nc(C2CC2)nc2c1CCN(C(=O)c1c(C)oc3ncnc(NC4(C)CC4)c13)C2 [Example 812, 5-{2-Cyclopropyl-4-methoxy-5H,6H,7H,8H-pyrido[3,4-d]pyrimidine-7-carbonyl}-6-methyl-N-(1-methylcyclopropyl)furo[2,3-d]pyrimidin-4-amine] was run?
Its value is >8.

With CCN(Cc1cc(OC)ncn1)C(=O)c1c(C)oc2ncnc(NC3(C)CC3)c12 [Example 813, N-Ethyl-N-[(6-methoxypyrimidin-4-yl)methyl]-6-methyl-4-[(1-methylcyclopropyl)amino]furo[2,3-d]pyrimidine-5-carboxamide] as the molecule, how does the IC50 read?
Its IC50 is 100 to 1000 nM.

How did the IC50 turn out when Cc1nc(C)n2c1CN(C(=O)c1c(C)oc3ncnc(NC4(C)CC4)c13)CC2 [Example 814, 5-{1,3-Dimethyl-5H,6H,7H,8H-imidazo[1,5-a]pyrazine-7-carbonyl}-6-methyl-N-(1-methylcyclopropyl)furo[2,3-d]pyrimidin-4-amine] was run?
The IC50 was 100 to 1000 nM.
